Test results taken from patent US20200010910A1, “Cytotoxic Chemotherapy-Based Predictive Assays for Acute Myeloid Leukemia” (The Regents of The University of California, priority 2017, published 2020).
Values belong to the compound of their own block, whether it stands above or below them.

What was measured:
[1] = tested on: tumor biopsy sample from the bone marrow; assay: microdose-induced oxaliplatin-DNA adducts in patient tumor biopsy; type: in vivo, human; conditions: metastatic breast patient; 48 hours post microdose; n=2 repeats
Procedure: Therefore, a tumor biopsy sample from the bone marrow of this same metastatic breast patient was collected 48 hours post microdose administration and analyzed by AMS for oxaliplatin-DNA adducts. […] Therefore, in one embodiment, a useful range of oxaliplatin-DNA adduct frequency after microdosing is 0.5-50 adducts per 10^8 nt.

5637R [2] = assay: oxaliplatin-DNA adduct formation and repair by AMS; type: cell-based, human
Procedure: (§1) To characterize the oxaliplatin-DNA adduct frequency in these cell lines, cells from each cell line were seeded in 60-mm dishes at a density of 1×10^6 cells/dish and allowed to attach overnight in a 37° C. humidified atmosphere containing 5% CO2. […] The cells were then washed twice with phosphate-buffered solution (PBS) and maintained thereafter with oxaliplatin-free culture media. DNA was harvested at hours 0, 2, 4, 8, 24, 28 and 48 hours using a Promega Wizard DNA Purification Kit. Ten micrograms of DNA per sample was converted to graphite and measured by AMS for ^14C quantification. Triplicate sets of AMS experiments were performed and the data was plotted as time vs oxaliplatin-DNA adducts per 10^8 nt.

5637 [3] = assay: oxaliplatin-DNA adduct formation and repair by AMS; type: cell-based, human
Procedure: as §1

PBMC = assay: microdose-induced oxaliplatin-DNA adducts in patients; type: in vivo, human
Procedure: The plasma samples were additionally processed to isolate PBMC, and the DNA was extracted and analyzed using AMS to calculate the oxaliplatin-DNA adduct frequency (both monoadducts and diadducts combined) (FIG. 17B). […] These adduct levels then decrease substantially out to 48 hours post microdosing. […] Overall, the plasma PK and time course of oxaliplatin-DNA adduct formation and repair in PBMC allowed determination of the best time to dose patients prior to biopsy in order to maximize the oxaliplatin-DNA adduct formation, allow for repair in those patients with high repair capacity, minimize the risk of radioactive contamination of PBMC and tumor samples, and also minimize the risk of radioactive contamination of the operating room by blood-borne radiocarbon.
Plasma samples were collected, filtered, and counted by liquid scintillation counting to determine plasma oxaliplatin levels. […] The range of microdose-induced adduct levels (frequencies) for the three colorectal patients was 0.1-6 adducts per 10^8 nt.

5637 [4] = assay: MTT assay IC50, bladder cancer cell line; type: cell-based, human; conditions: 72 hours
Procedure: Thus, we measured the IC50 of the six NSCLC cell lines from Example 2 to both cisplatin and carboplatin to determine if the sensitivity of these six NSCLC cell lines to the two drugs are correlated.
(§2) Drug-DNA adduct formation and repair was measured by accelerator mass spectrometry.
(§3) These two cell lines were also cultured with a range of concentrations of cisplatin, carboplatin, gemcitabine, doxorubicin, methotrexate and vinblastine for 72 hours to determine IC50 for these other drugs (FIG. 16C). These drugs were chosen because of their frequent use in the treatment of bladder cancer.

[5] = human plasma pharmacokinetics of [14C]oxaliplatin microdose; type: in vivo; conditions: metastatic breast cancer patient; IV microdose
Procedure: Peripheral blood specimens were drawn into BD Vacutainer CPT™ tubes with sodium heparin from the other arm at specific time points before and after the administration of the microdose. Plasma samples collected at −5 min, 5 min, 15 min, 30 min, 2 h, 4 h, 8 h, 24 h, and 48 h post microdose injection were analyzed by liquid scintillation counting (FIG. 17A).

[6] = tested on: five bladder cancer cell lines (5637, T24, TCCSUP, HT1197, and J82); assay: oxaliplatin-DNA adducts by AMS in cell culture; type: cell-based; conditions: 4 hours
Procedure: Cells were seeded in 60-mm dishes at a density of 1×10^6 cells/dish and allowed to attach overnight in a 37° C. humidified atmosphere containing 5% C02. […] The cells were then washed twice with phosphate-buffered solution (PBS) and maintained thereafter with oxaliplatin-free culture media. DNA was harvested at hours 0, 2, 4, 8, 24 hours using the modified Wizard procedure described previously. Ten micrograms of DNA per sample was converted to graphite and measured by AMS for ^14C quantification. Triplicate sets of AMS experiments were performed and the data was plotted as time vs oxaliplatin-DNA adducts per 10^8 nt. […] Oxaliplatin-DNA monoadducts could be detected in all cell lines at all time points. […] Therefore, drug-DNA damage from microdoses of oxaliplatin are predictive of the extent of DNA modification caused by the therapeutic dose in cell culture.

[7] = sterile solution in water, storage at −20° C.
Procedure: Radiolabeled carboplatin containing C^14 carbon atoms in the cyclobutane dicarboxylic acid group was formulated for human use as a sterile, pyrogen free solution at 5 mg/mL in water.

[8] = chemotherapy; cited from earlier work
[9] = safety of radiolabeled microdose in patients; conditions: IV microdose, 1% of the therapeutic dose
Procedure: Microdoses of the [^14C]Carboplatin were administered to human cancer patients as a diagnostic reagent, followed by full dose platinum-based chemotherapy and evaluation of response. Within four weeks of the [^14C]carboplatin microdose, these patients received standard of care chemotherapy for their disease, which included either carboplatin or cisplatin. The patient population consisted of non-small cell lung cancer patients (NSCLC), stage IV with measurable lesions, and bladder transitional cell carcinoma (TCC) patients, stage II disease and above for neoadjuvant treatment, or stage III and IV metastatic disease with measurable lesions for palliative chemotherapy. Patients were identified for this study as having measurable lesions using the Response Evaluation Criteria in Solid Tumor (RECIST), an Eastern Cooperative Oncology Group performance status of <2, and adequate bone marrow and vital organ function. PBMC and tumor tissue were collected from the patients for analysis of carboplatin-DNA monoadduct frequencies. Toxicity of the [^14C]carboplatin diagnostic reagent administered as a microdose was assessed using Common Terminology Criteria for Adverse Events (CTCAE). Toxicities of grade 3 and above were also collected for patient specific toxic response to full dose chemotherapy for correlation analysis to carboplatin-DNA monoadduct frequency. Patient response to chemotherapy was evaluated using the RECIST for correlation to carboplatin-DNA monoadduct frequency.
The dose of carboplatin in the diagnostic microdose was chosen to be sub-toxic and non-therapeutic, to minimize patient chemical and radiation exposure, and to result in AMS measurable carboplatin-DNA monoadducts. Nineteen patients have been administered at least one microdose of [^14C]carboplatin via IV infusion as a diagnostic reagent. Patient toxicity related to the microdose was monitored from the time of IV microdose until the patients received their first chemotherapy. […] The total radioactive dose given to a 75 kg patient after an IV microdose of [^14C]carboplatin is calculated to be 338 μCi. […]

5637R [10] = assay: MTT assay IC50, oxaliplatin-resistant bladder cancer sub-line; type: cell-based, human
Procedure: as §2
To confirm that 5637 was the original ATCC cell line, and that 5637R originated from the parental 5637 cell line, both cultures were sent to the ATCC Cell Line Authentication Service for cell verification per the ATCC protocol. More specifically, fifteen short tandem repeat (STR) loci plus the gender determining locus, amelogenin, were amplified using the commercially available PowerPlex® 16HS Kit from Promega.
as §3

5637R [11] = assay: CellTiter 96 Aqueous cell proliferation assay; type: cell-based; conditions: Homo sapiens, 72 hr continuous treatment
Excerpt: (§4) Correlation of IC50 to the AML induction drugs Dox and Ara-C were first performed with the adherent bladder cancer cell lines 5637 and 5637R for cytarabine and with the adherent ovarian cancer cell lines A2780 and A2780ADR for doxorubicin. Cell lines 5637 and 5637R (Ara-C resistant) have been described previously (20). A2780 and A2780ADR (doxorubicin resistant) were purchased from Sigma-Aldrich and grown as recommended. IC50 values were obtained by plating 4000 cells per well in 96-well plates the night before treatment, and then allowing the cells to adhere over night. Leukemia cell lines capable of continuous proliferation in suspension and having differential sensitivities to Dox and Ara-C were also obtained for correlation analysis. MV-4-11 (acute monocytic leukemia) and THP-1 (acute monocytic leukemia) human cell lines were purchased from American Type Culture Collection (ATCC, Manassas, Va.). MOLM-13 (acute myeloid leukemia) human cells were purchased from AddexBio (San Diego, Calif.). For leukemia cell lines (suspension cultures), approximately 8,000-11,000 cells were seeded per well in 96-well plates the day of treatment. MV-4-11 cells were grown in IMDM (Iscove's Modified Dulbecco's Media) with 10% FBS, 100 U/ml penicillin, and 100 μg/ml streptomycin. THP-1, A2780, and A2780ADR cells were grown in RPMI-1640 media with 10% FBS, 100 U/ml penicillin, and 100 μg/ml streptomycin. 5637, 5637R, and MOLM-13 cells were grown in RPMI-1640 media with 20% FBS, 100 U/ml penicillin, and 100 μg/ml streptomycin. All cells were cultured at 37° C. in a humidified incubator. The cells were then incubated with increasing doses of cytarabine or doxorubicin continuously for 72 hours. IC50 values were determined using the CellTiter 96 Aqueous Non-Radioactive Cell Proliferation Assay (Promega). […] As shown, 5637 and 5673R have differential sensitivity to cytarabine, while A2780 and A2780ADR have differential sensitivity to doxorubicin. The leukemic suspension cell lines also have differential sensitivity to these two drugs.

MOLM-13 [12] = assay: CellTiter 96 Aqueous cell proliferation assay; type: cell-based; conditions: Homo sapiens, 72 hr continuous treatment
Excerpt: as §4

THP-1 [13] = assay: CellTiter 96 Aqueous cell proliferation assay; type: cell-based; conditions: Homo sapiens, 72 hr continuous treatment
Excerpt: as §4

5637 [14] = assay: CellTiter 96 Aqueous cell proliferation assay; type: cell-based; conditions: Homo sapiens, 72 hr continuous treatment
Excerpt: as §4

MV-4-11 = assay: CellTiter 96 Aqueous cell proliferation assay; type: cell-based; conditions: Homo sapiens, MV4-11, 72 hr continuous treatment
Excerpt: as §4

MOLM-13 [15] = assay: ARA-C incorporation into DNA by AMS; type: cell-based, human; conditions: MOLM-13 (most sensitive); 1.6 nM or 16 nM ARA-C 24 hrs
Procedure: (§5) MV-4-11, THP-1, and MOLM-13 cells are human, immortalized, myelogenous leukemia cell lines that proliferate continuously in suspension. These cell lines serve as a cell culture model for AML. Suspension cultures consisting of two million cells in […] culture dishes were treated with ARA-C for 24 hrs (to simulate CIV) prior to DNA isolation. The cultures were dosed with a low (1.6 nM) or a high (16 nM) dose of ARA-C supplemented with 0.8 nM ^14C-labeled ARA-C (100 dpm/mL, 2.4-16.7 mCi/mmol specific activity), and isolated DNA was analyzed by AMS to determine drug-DNA adduct levels. The suspension cell lines were dosed in primary cell media (IMDM+20% BIT9500 serum substitute, 20 ng/mL IL-3, 10 ng/mL IL-6, 20 ng/mL G-CSF, 20 ng/mL GM-CSF, 50 ng/mL SCF) to mimic the dosing conditions that will be used for patient-derived AML samples. This media is used for short term culturing of primary AML cells that are previously collected from patients, frozen and stored in a biobank.

THP-1 [16] = assay: ARA-C incorporation into DNA by AMS; type: cell-based, human; conditions: THP-1 (least sensitive); 1.6 nM or 16 nM ARA-C 24 hrs
Procedure: as §5

[17] = tested on: 5637 and 5637R bladder cancer cell lines; assay: cytarabine-DNA adducts by AMS, CIV and bolus type treatment; type: cell-based, human; conditions: low dose or high dose; CIV and bolus treatment regimens
Procedure: Sensitive and resistant bladder cancer cells were treated with Ara-C in culture. Two treatment conditions were used, one to mimic clinically continuous infusion (CIV) and one to mimic clinically bolus infusion (bolus infusions use a much higher Ara-c dose). The day before treatment, one million bladder cancer cells were seeded in 60-mm dishes and allowed to attach overnight. To simulate CIV treatment, the bladder cancer cell lines were exposed in growth medium with a low (10 nM) or a high (1 μM) dose of ARA-C supplemented with 8 nM ^14C-labeled ARA-C(1000 dpm/mL-20-0.4 mCi/mmol specific activity (Moravek Biochemicals, Inc.) over 24 h (FIG. 25A). At 24 hrs, the cells were harvested and washed for subsequent DNA isolation using the Wizard Genomic DNA Purification Kit. To simulate bolus treatment, the bladder cancer cell lines were exposed in growth medium with a low dose (3 μM) or a high dose ([…]; a highly toxic concentration for these cell lines) supplemented with 0.8 nM ^14C-labeled ARA-C (0.0001 mCi/mmol specific activity) for 4 h, followed by 20 h in drug-free media (FIG. 25B). After a 4-hour incubation, the cells were washed three times with PBS and cultured in drug-free media for an additional 20 hours. DNA from cells isolated at 24 hours was then purified. […] The ratios of ^14C to total C were measured by AMS, and drug-DNA adducts per ten million nucleotides were calculated.

[18] = 24 hour culture without oxaliplatin

Compound: O=C1[O][Pt]2([NH][C@@H]3CCCC[C@H]3[NH]2)[O]C1=O [oxaliplatin]
oxaliplatin-DNA adduct frequency [1]: 14.6±4.9 per 10^8 nt
oxaliplatin-DNA adducts at 24 hours (5637R [2]; 10 μM for 24 hours): 259.2±37.3 adducts per 10^8 nucleotide
repair rate (5637R [2]; [18]): 3.48±0.15 adducts per 10^8 nucleotide-hour
area under curve (AUC) of oxaliplatin-DNA adducts (5637R [2]; 48 hour study period): 9,426±2457 adducts per 10^8 nucleotide-hour
oxaliplatin-DNA adducts at 24 hours (5637 [3]; 10 μM for 24 hours): 710.0±32.2 adducts per 10^8 nucleotide
repair rate 5637 [3, 18]: 1.34±0.30 adducts per 10^8 nucleotides-hour
area under curve (AUC) of oxaliplatin-DNA adducts (5637 [3]; 48 hour study period): 27,720±2,985 adducts per 10^8 nucleotide-hour
maximum oxaliplatin-DNA adducts in PBMC (PBMC; metastatic breast cancer patient, first 4 hours after microdose): 8 adducts per 10^8 nt
range of microdose-induced adduct levels (frequencies) (PBMC; three colorectal patients, PBMC): 0.1-6 adducts per 10^8 nt
IC50 5637 [4]: 2.45 µM
T1/2 (α), first (fast) phase [5]: 13.3 min
DNA damage concentrations (oxaliplatin-DNA adducts) ([6]; microdose 0.1 μM oxaliplatin): 50-100 adducts per 10^8 nt
DNA damage concentrations (oxaliplatin-DNA adducts) ([6]; therapeutic dose 10 μM oxaliplatin): 5,000-10,000 adducts per 10^8 nt
loss of radiopurity per year [7]: < 2%
peak human oxaliplatin plasma concentration during chemotherapy [8]: 10 µM
clinical side effects [9]: None of the clinical side effects associated with standard therapeutic doses of oxaliplatin were observed
increase of IC50 of 5637R compared to parental 5637 (5637R [10]): approximately 10 fold
IC50 (5637R [10]; 5637R, 72 hours): 27.3 µM

IC50 (MOLM-13 [12]): 0.018 µM
IC50 (THP-1 [13]): 4.4 µM
IC50 (MV-4-11): 0.353 µM
Compound: Nc1ccn([C@@H]2O[C@H](CO)[C@@H](O)[C@@H]2O)c(=O)n1 [cytarabine]
IC50 (5637R [11]): 60.1 µM
IC50 5637 [14]: 5.69 µM
levels of ARA-C incorporation among three AML cell lines (MOLM-13 [15]): highest levels of ARA-C incorporation
levels of ARA-C incorporation among three AML cell lines (THP-1 [16]): lowest levels of ARA-C incorporation
cytarabine-DNA adducts in resistant 5637R compared to parent 5637 [17]: fewer cytarabine-DNA adducts
